According to ChEMBL document CHEMBL3124936, “Unusual fernane and gammacerane glycosides from the aerial parts of Spergula fallax” (J Nat Prod, 2014):
pIC50: −log10 of the molar value.

Legend:
HeLa = test: Growth inhibition of human HeLa cells assessed as inhibition of cell viability after 72 hrs by MTT assay; format: functional, cell-based
[1] = Growth inhibition of human DLD1 cells assessed as inhibition of cell viability after 72 hrs by MTT assay; format: functional, cell-based; details: DLD-1, 72 h

SMILES	pIC50 (HeLa)	pIC50 [1]
CC(=O)O[C@H]1CO[C@@H](O[C@@H]2C[C@]3(C)[C@H](CC[C@@H]4[C@@]5(C)CC[C@H](O)C(C)(C)[C@@H]5[C@@H](O)C[C@]43C)[C@@]3(C)C[C@@H](O[C@@H]4O[C@H](CO)[C@@H](O)[C@H](O)[C@H]4O)[C@H](O)C(C)(C)[C@H]23)[C@H](O)[C@H]1O	4.28	4.28
COc1cc([C@@H]2c3cc4c(cc3[C@@H](O[C@@H]3O[C@@H]5CO[C@@H](C)O[C@H]5[C@H](O)[C@H]3O)[C@H]3COC(=O)[C@H]23)OCO4)cc(OC)c1O [ETOPOSIDE]	4.80	4.70
